Experimental data published in article PMC6934184, “Selective DNA-PKcs inhibition extends the therapeutic index of localized radiotherapy and chemotherapy” (The Journal of Clinical Investigation, 2019).

Biological target: T1, AKT3 (PKB gamma) (Homo sapiens, UniProt Q9Y243)
T1 construct: purchased Thermo Fisher Scientific (Life Technologies) SelectScreen
Assay: SelectScreen Z'LYTE
Format: biochemical
Outline: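 SelectScreen broad panel; activity (Z'LYTE, Adapta) plus binding formats. ATP: Km app for CSF1R Z'LYTE; 10 for CAMK1 Adapta. Readout = % per kinase.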

T1 sequence (Q9Y243 whole entry): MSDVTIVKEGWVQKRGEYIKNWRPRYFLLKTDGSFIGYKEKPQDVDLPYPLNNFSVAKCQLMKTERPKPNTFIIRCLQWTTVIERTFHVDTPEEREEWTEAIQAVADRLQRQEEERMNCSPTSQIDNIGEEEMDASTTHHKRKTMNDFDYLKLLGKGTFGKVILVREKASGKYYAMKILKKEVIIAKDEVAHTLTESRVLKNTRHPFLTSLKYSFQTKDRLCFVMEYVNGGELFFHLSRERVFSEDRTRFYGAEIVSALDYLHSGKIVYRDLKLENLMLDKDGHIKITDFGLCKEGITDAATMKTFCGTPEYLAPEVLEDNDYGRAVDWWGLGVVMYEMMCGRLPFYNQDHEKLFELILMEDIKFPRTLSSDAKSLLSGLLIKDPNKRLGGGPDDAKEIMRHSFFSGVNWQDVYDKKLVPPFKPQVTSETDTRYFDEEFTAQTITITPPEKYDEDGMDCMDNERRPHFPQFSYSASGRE

## CN(C(=O)CN1CCOCC1)c1ccc2sc3c(-c4cccc5c(=O)cc(N6CC7CCC(C6)O7)oc45)cccc3c2c1 [NU5455]
  inhibition at 1 µM: -0.5%
